Data published in ChEMBL document CHEMBL5113478, “7-Azaindole, 2,7-diazaindole, and 1H-pyrazole as core structures for novel anticancer agents with potential chemosensitizing properties” (Eur J Med Chem, 2022).
Activity calls are given as the source filed them. No cut-off for these calls is given here.

Tests used:
[1] = molecular target: Vascular endothelial growth factor receptor 2 (Homo sapiens) (UniProt P35968); test: Inhibition of human KDR assessed as residual activity at 10 uM relative to control
[2] = molecular target: Proto-oncogene tyrosine-protein kinase receptor Ret (Homo sapiens) (UniProt P07949); test: Inhibition of human Ret assessed as residual activity at 10 uM relative to control
HT-29 [3] = test: Antiproliferative activity against human HT-29 cells assessed as […] cell proliferation at 10 uM incubated for 48 hrs in presence of 15 uM of CDDP by WST-1 assay relative to control; type: functional
Jurkat [4] = test: Antiproliferative activity against human Jurkat cells assessed as […] cell proliferation at 10 uM incubated for 48 hrs by WST-1 assay relative to control; type: functional
1321N1 [5] = test: Cytotoxicity against human 1321N1 cells assessed as reduction in cell viability at 15 uM incubated for 48 hrs by MTT assay; type: functional, cell-based
SAOS-2 [6] = test: Antiproliferative activity against human SAOS-2 cells assessed as […] cell proliferation at 10 uM incubated for 48 hrs by WST-1 assay relative to control; type: functional
[7] = molecular target: Angiopoietin-1 receptor (Homo sapiens) (UniProt Q02763); test: Inhibition of human Tie2 assessed as residual activity at 10 uM relative to control
[8] = molecular target: Vascular endothelial growth factor receptor 3 (Homo sapiens) (UniProt P35916); test: Inhibition of human FLT4 assessed as residual activity at 10 uM relative to control
[9] = test system: Mast/stem cell growth factor receptor Kit (Homo sapiens), P10721 [V560G]; test: Inhibition of human cKit V560G mutant assessed as residual activity at 10 uM relative to control
PANC-1 [10] = test: Antiproliferative activity against human PANC-1 cells assessed as […] cell proliferation at 10 uM incubated for 48 hrs by WST-1 assay relative to control; type: functional
Jurkat [11] = test: Antiproliferative activity against human Jurkat cells assessed as […] cell proliferation at 10 uM incubated for 48 hrs in presence of 2 uM of CDDP by WST-1 assay relative to control; type: functional
[12] = molecular target: Fibroblast growth factor receptor 2 (Homo sapiens) (UniProt P21802); test: Inhibition of human FGFR2 assessed as residual activity at 10 uM relative to control
[13] = molecular target: T1, Aurora kinase A (Homo sapiens) (UniProt O14965); test: Inhibition of human Aurora-A assessed as residual activity at 10 uM relative to control
T1 sequence (whole entry): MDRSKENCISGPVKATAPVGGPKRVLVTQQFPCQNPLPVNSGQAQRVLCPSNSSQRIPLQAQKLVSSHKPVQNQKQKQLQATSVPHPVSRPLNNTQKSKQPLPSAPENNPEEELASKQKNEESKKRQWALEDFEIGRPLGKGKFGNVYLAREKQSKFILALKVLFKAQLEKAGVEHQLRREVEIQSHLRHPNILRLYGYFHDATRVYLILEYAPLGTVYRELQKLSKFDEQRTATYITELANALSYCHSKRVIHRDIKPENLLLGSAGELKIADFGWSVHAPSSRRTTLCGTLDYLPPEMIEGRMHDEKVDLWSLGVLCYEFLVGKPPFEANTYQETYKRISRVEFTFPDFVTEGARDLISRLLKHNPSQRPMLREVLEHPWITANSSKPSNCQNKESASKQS

[14] = molecular target: Fibroblast growth factor receptor 3 (Homo sapiens) (UniProt P22607); test: Inhibition of human FGFR3 assessed as residual activity at 10 uM relative to control
PANC-1 [15] = test: Antiproliferative activity against human PANC-1 cells assessed as […] cell proliferation at 10 uM incubated for 48 hrs in presence of 15 uM of CDDP by WST-1 assay relative to control; type: functional
[16] = molecular target: High affinity nerve growth factor receptor (Homo sapiens) (UniProt P04629); test: Inhibition of human TrkA assessed as residual activity at 10 uM relative to control
HeLa [17] = test: Antiproliferative activity against human HeLa cells assessed as […] cell proliferation at 10 uM incubated for 48 hrs by WST-1 assay relative to control; type: functional
MCF7 [18] = test: Antiproliferative activity against human MCF7 cells assessed as […] cell proliferation at 10 uM incubated for 48 hrs by WST-1 assay relative to control; type: functional
HeLa [19] = test: Antiproliferative activity against human HeLa cells assessed as […] cell proliferation at 10 uM incubated for 48 hrs in presence of 15 uM of CDDP by WST-1 assay relative to control; type: functional
A2780 [20] = test: Antiproliferative activity against human A2780 cells assessed as […] cell proliferation at 10 uM incubated for 48 hrs by WST-1 assay relative to control; type: functional
HT-29 [21] = test: Antiproliferative activity against human HT-29 cells assessed as […] cell proliferation at 10 uM incubated for 48 hrs by WST-1 assay relative to control; type: functional
[22] = molecular target: Vascular endothelial growth factor receptor 1 (Homo sapiens) (UniProt P17948); test: Inhibition of human FLT1 assessed as residual activity at 10 uM relative to control
SAOS-2 [23] = test: Antiproliferative activity against human SAOS-2 cells assessed as […] cell proliferation at 10 uM incubated for 48 hrs in presence of 15 uM of CDDP by WST-1 assay relative to control; type: functional
GBM = test: Cytotoxicity against patient-derived human GBM cells assessed as reduction in cell viability at 15 uM incubated for 48 hrs by MTT assay; type: functional
MOLT-4 [24] = test: Antiproliferative activity against human MOLT-4 cells assessed as […] cell proliferation at 10 uM incubated for 48 hrs by WST-1 assay relative to control; type: functional
A549 [25] = test: Antiproliferative activity against human A549 cells assessed as […] cell proliferation at 10 uM incubated for 48 hrs by WST-1 assay relative to control; type: functional
[26] = molecular target: Protein kinase C alpha type (Homo sapiens) (UniProt P17252); test: Inhibition of human PKCalpha assessed as residual activity at 10 uM relative to control
1321N1 [27] = test: Chemo-sensitizing activity against human 1321N1 cells at 15 uM incubated for 48 hrs in presence of TMZ by MTT assay; type: functional, cell-based
[28] = molecular target: T2, Cytoplasmic tyrosine-protein kinase BMX (Homo sapiens) (UniProt P51813); test: Inhibition of human Bmx assessed as residual activity at 10 uM relative to control
T2 sequence (whole entry): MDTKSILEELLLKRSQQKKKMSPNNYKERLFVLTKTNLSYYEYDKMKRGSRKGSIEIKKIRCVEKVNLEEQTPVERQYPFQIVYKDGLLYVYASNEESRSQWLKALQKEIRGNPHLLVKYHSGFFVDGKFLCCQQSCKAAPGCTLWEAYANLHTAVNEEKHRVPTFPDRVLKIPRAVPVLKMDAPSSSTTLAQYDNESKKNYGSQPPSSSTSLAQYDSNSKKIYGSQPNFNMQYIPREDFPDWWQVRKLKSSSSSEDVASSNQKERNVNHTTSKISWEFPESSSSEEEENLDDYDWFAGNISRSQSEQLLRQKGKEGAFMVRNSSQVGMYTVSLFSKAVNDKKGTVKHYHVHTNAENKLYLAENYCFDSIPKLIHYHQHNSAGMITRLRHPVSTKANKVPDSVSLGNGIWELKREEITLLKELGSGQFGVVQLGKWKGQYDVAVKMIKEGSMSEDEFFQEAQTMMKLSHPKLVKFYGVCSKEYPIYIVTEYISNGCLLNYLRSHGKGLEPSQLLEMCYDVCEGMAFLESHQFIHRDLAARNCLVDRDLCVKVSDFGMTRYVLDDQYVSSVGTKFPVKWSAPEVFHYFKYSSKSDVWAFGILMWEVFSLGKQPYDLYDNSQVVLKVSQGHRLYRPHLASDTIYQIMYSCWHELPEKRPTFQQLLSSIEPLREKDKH

A549 [29] = test: Antiproliferative activity against human A549 cells assessed as […] cell proliferation at 10 uM incubated for 48 hrs in presence of 15 uM of CDDP by WST-1 assay relative to control; type: functional
MOLT-4 [30] = test: Antiproliferative activity against human MOLT-4 cells assessed as […] cell proliferation at 10 uM incubated for 48 hrs in presence of 2 uM of CDDP by WST-1 assay relative to control; type: functional
A2780 [31] = test: Antiproliferative activity against human A2780 cells assessed as […] cell proliferation at 10 uM incubated for 48 hrs in presence of 2 uM of CDDP by WST-1 assay relative to control; type: functional
ATR/ATRIP (Homo sapiens) = ATR/ATRIP (Homo sapiens) (UniProt Q13535+Q8WXE1); test: Inhibition of human ATR/ATRIP assessed as residual activity at 10 uM relative to control; type: protein-complex assay
MCF7 [32] = test: Antiproliferative activity against human MCF7 cells assessed as […] cell proliferation at 10 uM incubated for 48 hrs in presence of 10 uM of CDDP by WST-1 assay relative to control; type: functional
[33] = molecular target: Serine/threonine-protein kinase ATR (Homo sapiens, UniProt Q13535); test: Binding affinity to ATR (unknown origin) assessed as inhibition constant
[34] = Chemo-sensitizing activity against human 1321N1 cells at 15 uM incubated for 48 hrs in presence of TMZ by MTT assay relative to control; type: functional

Chain of Vascular endothelial growth factor receptor 1 (Homo sapiens) (P17948 whole entry): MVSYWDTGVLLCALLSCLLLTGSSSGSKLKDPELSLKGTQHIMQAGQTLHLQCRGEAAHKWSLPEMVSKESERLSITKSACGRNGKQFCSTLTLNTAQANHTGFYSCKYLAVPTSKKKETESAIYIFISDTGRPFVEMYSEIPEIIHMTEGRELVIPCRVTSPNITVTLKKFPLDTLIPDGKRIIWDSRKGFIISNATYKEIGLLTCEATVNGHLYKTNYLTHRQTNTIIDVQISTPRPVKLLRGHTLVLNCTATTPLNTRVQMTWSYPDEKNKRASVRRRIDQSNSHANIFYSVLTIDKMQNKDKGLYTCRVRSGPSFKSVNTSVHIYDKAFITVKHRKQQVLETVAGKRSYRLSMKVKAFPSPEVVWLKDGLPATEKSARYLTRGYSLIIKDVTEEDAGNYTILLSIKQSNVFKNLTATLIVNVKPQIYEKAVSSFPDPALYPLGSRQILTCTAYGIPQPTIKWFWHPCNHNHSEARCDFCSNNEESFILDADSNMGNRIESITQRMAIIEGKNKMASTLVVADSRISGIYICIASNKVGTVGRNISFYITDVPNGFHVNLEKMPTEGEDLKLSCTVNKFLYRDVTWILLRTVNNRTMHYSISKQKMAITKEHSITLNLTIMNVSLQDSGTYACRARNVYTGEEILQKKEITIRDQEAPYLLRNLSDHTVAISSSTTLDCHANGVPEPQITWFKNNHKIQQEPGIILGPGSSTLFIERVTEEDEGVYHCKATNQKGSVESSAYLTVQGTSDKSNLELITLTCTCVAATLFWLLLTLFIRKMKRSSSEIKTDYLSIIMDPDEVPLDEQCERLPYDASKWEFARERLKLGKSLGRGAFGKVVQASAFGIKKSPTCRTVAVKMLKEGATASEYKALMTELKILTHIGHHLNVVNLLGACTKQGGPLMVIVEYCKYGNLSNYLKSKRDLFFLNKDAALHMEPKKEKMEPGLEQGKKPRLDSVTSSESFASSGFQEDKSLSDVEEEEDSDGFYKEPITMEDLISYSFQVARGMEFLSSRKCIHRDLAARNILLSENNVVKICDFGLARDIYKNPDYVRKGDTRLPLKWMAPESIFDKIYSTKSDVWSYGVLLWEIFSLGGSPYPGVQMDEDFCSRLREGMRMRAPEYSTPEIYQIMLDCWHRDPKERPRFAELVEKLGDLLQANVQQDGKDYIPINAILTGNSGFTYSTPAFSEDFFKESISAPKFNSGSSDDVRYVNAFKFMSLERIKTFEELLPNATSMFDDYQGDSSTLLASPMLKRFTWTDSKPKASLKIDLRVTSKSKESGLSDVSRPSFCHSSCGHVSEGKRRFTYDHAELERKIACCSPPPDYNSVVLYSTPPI
Chain of Fibroblast growth factor receptor 3 (Homo sapiens) (P22607 23-806 limits assumed): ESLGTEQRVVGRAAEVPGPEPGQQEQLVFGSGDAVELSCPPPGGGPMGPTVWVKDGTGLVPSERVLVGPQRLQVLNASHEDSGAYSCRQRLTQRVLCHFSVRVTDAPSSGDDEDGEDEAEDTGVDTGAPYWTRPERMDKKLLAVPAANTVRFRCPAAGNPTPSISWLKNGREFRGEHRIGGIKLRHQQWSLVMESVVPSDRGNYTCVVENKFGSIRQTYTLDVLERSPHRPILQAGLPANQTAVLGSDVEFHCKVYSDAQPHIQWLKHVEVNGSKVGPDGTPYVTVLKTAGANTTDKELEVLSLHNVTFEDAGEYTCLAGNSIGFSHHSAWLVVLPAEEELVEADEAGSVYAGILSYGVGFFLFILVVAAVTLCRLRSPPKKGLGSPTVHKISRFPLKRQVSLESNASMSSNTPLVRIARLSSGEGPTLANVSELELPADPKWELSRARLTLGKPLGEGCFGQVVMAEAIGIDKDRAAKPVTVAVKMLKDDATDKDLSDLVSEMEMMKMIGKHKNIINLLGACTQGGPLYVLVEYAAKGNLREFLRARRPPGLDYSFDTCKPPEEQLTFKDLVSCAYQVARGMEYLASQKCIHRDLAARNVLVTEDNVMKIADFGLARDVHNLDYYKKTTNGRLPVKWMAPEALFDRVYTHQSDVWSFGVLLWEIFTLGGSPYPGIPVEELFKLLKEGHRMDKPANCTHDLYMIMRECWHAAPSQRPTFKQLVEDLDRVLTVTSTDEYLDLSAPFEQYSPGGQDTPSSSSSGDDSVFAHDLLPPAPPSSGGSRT
Chain of High affinity nerve growth factor receptor (Homo sapiens) (P04629 33-796 limits assumed): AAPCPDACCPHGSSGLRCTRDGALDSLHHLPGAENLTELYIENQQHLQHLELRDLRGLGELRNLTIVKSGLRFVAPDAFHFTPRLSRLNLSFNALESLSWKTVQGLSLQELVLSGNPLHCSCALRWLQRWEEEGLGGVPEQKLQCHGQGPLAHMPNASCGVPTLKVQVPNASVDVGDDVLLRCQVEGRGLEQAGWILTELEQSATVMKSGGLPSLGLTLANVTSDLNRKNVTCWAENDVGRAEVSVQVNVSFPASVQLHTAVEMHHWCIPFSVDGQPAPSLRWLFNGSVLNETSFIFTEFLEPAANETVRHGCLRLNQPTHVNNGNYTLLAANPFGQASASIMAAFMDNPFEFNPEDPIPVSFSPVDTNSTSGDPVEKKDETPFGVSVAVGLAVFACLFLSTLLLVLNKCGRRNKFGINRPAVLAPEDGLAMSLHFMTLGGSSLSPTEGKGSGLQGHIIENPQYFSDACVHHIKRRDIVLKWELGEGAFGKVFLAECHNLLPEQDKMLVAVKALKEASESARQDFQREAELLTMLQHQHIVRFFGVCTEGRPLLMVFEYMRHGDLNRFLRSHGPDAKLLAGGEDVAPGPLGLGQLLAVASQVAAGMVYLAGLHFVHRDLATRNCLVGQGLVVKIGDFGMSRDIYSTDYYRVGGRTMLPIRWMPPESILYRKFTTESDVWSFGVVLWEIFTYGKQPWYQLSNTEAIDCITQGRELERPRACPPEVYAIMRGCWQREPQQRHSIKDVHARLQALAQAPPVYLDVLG
Chain of Proto-oncogene tyrosine-protein kinase receptor Ret (Homo sapiens) (P07949 whole entry): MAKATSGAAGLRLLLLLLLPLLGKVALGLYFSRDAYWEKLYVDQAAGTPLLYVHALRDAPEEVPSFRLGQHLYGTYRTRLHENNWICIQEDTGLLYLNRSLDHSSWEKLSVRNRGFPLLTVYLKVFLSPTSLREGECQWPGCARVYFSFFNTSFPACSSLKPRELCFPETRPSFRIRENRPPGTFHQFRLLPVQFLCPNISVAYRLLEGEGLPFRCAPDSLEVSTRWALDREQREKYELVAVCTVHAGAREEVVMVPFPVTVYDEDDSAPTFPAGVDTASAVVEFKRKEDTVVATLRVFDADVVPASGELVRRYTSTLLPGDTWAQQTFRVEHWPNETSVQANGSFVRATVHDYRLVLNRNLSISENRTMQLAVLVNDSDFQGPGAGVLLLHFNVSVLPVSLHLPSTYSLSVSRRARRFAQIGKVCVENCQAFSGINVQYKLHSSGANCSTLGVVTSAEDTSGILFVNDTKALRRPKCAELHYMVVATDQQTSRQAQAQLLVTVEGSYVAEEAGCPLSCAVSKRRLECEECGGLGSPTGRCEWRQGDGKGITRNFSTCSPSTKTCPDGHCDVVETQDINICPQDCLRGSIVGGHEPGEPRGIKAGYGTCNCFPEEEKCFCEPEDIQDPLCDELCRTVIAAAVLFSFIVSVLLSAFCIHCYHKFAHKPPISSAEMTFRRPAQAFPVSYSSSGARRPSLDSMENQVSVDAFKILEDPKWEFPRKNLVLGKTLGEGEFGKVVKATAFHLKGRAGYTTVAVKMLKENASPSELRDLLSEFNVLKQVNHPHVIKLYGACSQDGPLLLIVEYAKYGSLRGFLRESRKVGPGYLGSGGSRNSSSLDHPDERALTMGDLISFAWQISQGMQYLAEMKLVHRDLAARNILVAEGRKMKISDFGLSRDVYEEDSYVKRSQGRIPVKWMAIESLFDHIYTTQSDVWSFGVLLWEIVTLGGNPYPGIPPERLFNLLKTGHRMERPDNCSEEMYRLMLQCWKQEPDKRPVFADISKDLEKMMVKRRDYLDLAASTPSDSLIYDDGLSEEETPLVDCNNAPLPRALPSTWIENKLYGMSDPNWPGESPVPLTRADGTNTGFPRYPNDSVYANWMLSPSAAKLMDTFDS

Compound	Activity (HT-29 [3])	Activity (Jurkat [4])	Activity (1321N1 [5])	Activity (SAOS-2 [6])	Activity (PANC-1 [10])	Activity (Jurkat [11])	Activity (PANC-1 [15])	Activity (HeLa [17])	Activity (MCF7 [18])	Activity (HeLa [19])	Activity (A2780 [20])	Cell viability relative to control (HT-29 [21])	Activity (SAOS-2 [23])	Activity (GBM)	Activity (MOLT-4 [24])	Activity (A549 [25])	Activity (A549 [29])	Activity (MOLT-4 [30])	Activity (A2780 [31])	Activity (MCF7 [32])	further results
CCN1CCN(C2CCN(Cc3c[nH]c4ncc(-c5ccc(S(=O)(=O)C(C)C)cc5)cc34)CC2)CC1	46%	87%	Active	87%	87%	46%	46%	87%	87%	46%	87%	87%	46%	Active	87%	87%	46%	46%	46%	46%	Activity [1]: 91%; Activity [2]: 129%; Activity [7]: 84%; Activity [8]: 80%; Activity [9]: 83%; Activity [12]: 108%; Activity [13]: 86%; Activity [14]: 92%; Activity [16]: 82%; Activity [22]: 81%; Activity [26]: 88%; Activity (1321N1 [27]): Active; Activity [28]: 97%; Activity (ATR/ATRIP (Homo sapiens)): 96%
Nc1nn2cc(F)cnc2c1C(=O)Nc1cncc(F)c1N1CCC(C(=O)N2CCN(C3COC3)CC2)CC1 [M4344]																					Ki [33]: < 0.2 nM
CC(C)S(=O)(=O)c1ccc(-c2cnc3[nH]nc(C(=O)N4CCC(c5ccccc5)CC4)c3c2)cc1	49%	79%	Active	79%	79%	49%	49%	79%	79%	49%	79%	79%	49%	50%	79%	79%	49%	49%	49%	49%	Activity [1]: 73%; Activity [2]: 77%; Activity [7]: 70%; Activity [8]: 39%; Activity [9]: 89%; Activity [12]: 105%; Activity [13]: 80%; Activity [14]: 90%; Activity [16]: 108%; Activity [22]: 61%; Activity [26]: 59%; Activity (1321N1 [27]): Active; Activity [28]: 98%; Activity (ATR/ATRIP (Homo sapiens)): 59%
CC(C)S(=O)(=O)c1ccc(-c2cnc3[nH]cc(C(=O)N4CCC(c5ccccc5)CC4)c3c2)cc1	28%	30%	Active	30%	30%	28%	28%	30%	30%	28%	30%	30%	28%	Active	30%	30%	28%	28%	28%	28%	Activity [1]: 52%; Activity [2]: 16%; Activity [7]: 57%; Activity [8]: 10%; Activity [9]: 30%; Activity [12]: 57%; Activity [13]: 45%; Activity [14]: 60%; Activity [16]: 42%; Activity [22]: 49%; Activity [26]: 90%; Activity [28]: 56%; Activity (ATR/ATRIP (Homo sapiens)): 91%
CC(C)S(=O)(=O)c1ccc(-c2cnc3[nH]cc(CN4CCC(c5ccccc5)CC4)c3c2)cc1	46%	77%	Active	77%	77%	46%	46%	77%	77%	46%	77%	77%	46%	Active	77%	77%	46%	46%	46%	46%	Activity [34]: 100%
